Assay in all cases: DTP human tumour cell line panel, 48 h
In experiment [1] the test system is DU-145 prostate.
Experiment [2] has as its system HCC-2998 colon.
In experiment [3] the test system is M14 melanoma.
Experiment [4] relates to NCI-H522 lung.
Experiment [5] relates to T-47D breast.

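Assay format: 96-well plates, 48-hour exposure. GI50 = concentration required for 50% inhibition of growth. At the TGI there is no net growth.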

A word on the TGI: it is the concentration at which net growth stops. A higher TGI goes with less potent growth arrest. As to `COCN1C(=O)[C@@H]2CCCN2C(=O)c2cc(Cl)ccc21`, the TGI in experiment [1], in experiment [2], in experiment [3], in experiment [4] and in experiment [5] was more than 100 µM in each case.
In the case of `COc1ccc(N2C(=O)C3c4[nH]c5cc(Cl)ccc5c4C4CCC(C(C)(C)C)CC4C3C2=O)cc1` (configuration not stated), the TGI in experiment [1], in experiment [2], in experiment [3], in experiment [4] and in experiment [5] was more than 100 µM each time.
For `CC1C(=O)CC[C@@]2(C)C(=O)CCCC12O` (some centres not stated), the TGI in experiment [1], in experiment [2], in experiment [3], in experiment [4] and in experiment [5] was more than 100 µM in each case.
Regarding `COC(=O)C1=C(OC(=O)/C(=C/c2c(F)cccc2F)c2ccccc2)C(C(=O)OC)[C@@]2(O)[C@@H](C(=O)OC)[C@H](C)C[C@@H]1[C@@H]2C(=O)OC` (some centres not stated), the total growth inhibition concentration (TGI) in experiment [1], in experiment [3], in experiment [4] and in experiment [5] was more than 100 µM in each case.
`Cc1cccc2c(N)c3cccc(C(=O)NCCN4CCOCC4)c3nc12`: the TGI in experiment [1] was 11.6 µM; in experiment [2], more than 100 µM; in experiment [3], 7.33 µM; in experiment [4], 1.86 µM.
In the case of `COc1cc2c(cc1O)-c1c(OC)c(O)cc3c1C(C2)N(C)CC3` (configuration not stated), the total growth inhibition concentration (TGI) in experiment [1], in experiment [3], in experiment [4] and in experiment [5] was more than 100 µM each time.
Consider `COc1cc(S(=O)(=O)Nc2ccc(-c3csc(/N=C\C=C\c4ccccc4)n3)cc2)ccc1Cl`, for which the TGI in experiment [1] is more than 100 µM; in experiment [2] it was more than 100 µM; in experiment [3], more than 100 µM; in experiment [4], more than 100 µM; in experiment [5], 80.7 µM.
`Cc1cc(S(=O)(=O)Nc2nc(N)nc(N(C)C)n2)c(SC(C(=O)O)c2ccccc2)cc1Cl` (configuration not stated): the TGI in experiment [1], in experiment [2], in experiment [3], in experiment [4] and in experiment [5] was more than 10 µM throughout.
As for `O=C1C=C(NCCc2cc(Cl)c(O)c(Cl)c2)C(=O)c2[nH]cnc21`, the TGI in experiment [2] was more than 100 µM; in experiment [3] it was 26.7 µM; in experiment [4], 31.4 µM; in experiment [5], 53.2 µM.
Turning to `CCCCCCCCCCCCCCCCNc1ccc2c(c1)OCCOCCOCCOCCO2`, the TGI in experiment [1] worked out at 15.3 µM; in experiment [3], 13.5 µM; in experiment [4], 8.68 µM; in experiment [5], 9.2 µM.
Consider `Cc1ccc(C(=O)c2[nH]c(Nc3ccc(Cl)cc3)c(C(=S)Nc3ccccc3)c2N)cc1`, for which the TGI is 24.8 µM in experiment [1]; 5.31 µM in experiment [2]; 35.8 µM in experiment [3]; 23.6 µM in experiment [4]; more than 100 µM in experiment [5].
On the same counts, the results for `O=C1CCCCCCCCCCC1CN(Cc1ccccc1)Cc1ccccc1` (configuration not stated) are more than 100 µM, 85.8 µM, more than 100 µM, more than 100 µM and 63.9 µM.
On the same counts, the results for `Cc1ccc(C2SC(N)=Nc3c2c(C)nn3C(=O)c2ccc(Cl)cc2)cc1` (configuration not stated) are more than 10 µM, more than 10 µM, more than 10 µM, more than 10 µM and more than 10 µM.
On the same counts, the results for `O=C1Cc2c(-c3ccccc3)cc(-c3ccc4ccccc4c3)nc2-c2ccccc2N1` are more than 100 µM, more than 100 µM, more than 100 µM, 26.1 µM and more than 100 µM.
For `Cc1ccc(N=Nc2c(C)nn(C(=O)CC(=O)Nc3ccc(Cl)cc3)c2C)cc1C`, the TGI in experiment [1], in experiment [2], in experiment [3], in experiment [4] and in experiment [5] was more than 100 µM in each case.
As to `CCC(C)C(NC(=O)c1c2ccccc2nc2ccccc12)C(=O)O` (configuration not stated), the TGI in experiment [1], in experiment [2], in experiment [3] and in experiment [4] was more than 100 µM in each case.
Turning to `Cc1ccc(S(=O)(=O)c2ccsc2NC(=O)c2ccccc2)cc1`, the TGI in experiment [1], in experiment [2], in experiment [3], in experiment [4] and in experiment [5] was more than 100 µM each time.
For the molecule `C=CCOCn1ccc(NC(=O)c2ccccc2)nc1=O`, the TGI in experiment [1], in experiment [2], in experiment [3], in experiment [4] and in experiment [5] was more than 100 µM each time.
As to `O=C(/C=C/c1ccc(O)cc1)c1cc(O)cc(O)c1`, the TGI turned out to be 25.2 µM in experiment [1], 29.3 µM in experiment [3], 18.1 µM in experiment [4] and 33 µM in experiment [5].
For the molecule `Cc1cn(C2CC(N=[N+]=[N-])C(C(=O)O)O2)c(=O)[nH]c1=O` (configuration not stated), the TGI in experiment [1], in experiment [2], in experiment [3] and in experiment [4] was more than 100 µM in each case.
As to `ClCCCC1COc2ccccc2O1` (configuration not stated), the TGI in experiment [1], in experiment [2], in experiment [3] and in experiment [4] was more than 100 µM each time.
With `NS(=O)(=O)c1ccc(N=Nc2nc3[nH]cnc(=S)c3[nH]2)cc1`, the TGI was 41.1 µM in experiment [1]; 2.83 µM in experiment [2]; more than 32.6 µM in experiment [3]; 10.2 µM in experiment [4]; more than 25.3 µM in experiment [5].
For the molecule `NN/C(=N\S(=O)(=O)c1cccc2nsnc12)Nc1ccc(Cl)cc1`, the TGI in experiment [1], in experiment [3] and in experiment [5] was more than 100 µM throughout.
Turning to `COC(=O)c1cn(CCCCO)nn1`, the TGI in experiment [1], in experiment [2] and in experiment [5] was more than 100 µM in each case.
Consider `COc1cc2c(cc1OC)CN1CCc3ccccc3CC1C2` (configuration not stated), for which the TGI in experiment [1] was more than 100 µM; in experiment [2], more than 100 µM; in experiment [3], more than 100 µM; in experiment [5] it was 75.6 µM.
With `Cc1cn(CCCCOC(=O)NC(CCCNC(N)=O)C(=O)O)c(=O)[nH]c1=O` (configuration not stated), the TGI in experiment [1], in experiment [2], in experiment [3] and in experiment [5] was more than 100 µM in each case.
As for `CC1=C2c3ccccc3N(S(=O)(=O)c3ccccc3)[C@H]2[C@H](C(=O)N2C3CC4CC[C@@]3(CS2(=O)=O)C4(C)C)CC1` (some centres not stated), the TGI in experiment [1] is more than 100 µM; in experiment [3] it was more than 100 µM; in experiment [4] it was 42.6 µM; in experiment [5], more than 100 µM.
By GI50 is commonly meant the concentration giving 50% growth inhibition. In the case of `OCCN1CCN(c2nc(Nc3ccc(-c4nc5ccccc5[nH]4)cc3)c3cn[nH]c3n2)CC1`, in experiment [2], the GI50 was 1.74 µM and the TGI came out at 3.33 µM.
Regarding `COc1ccc(C(=O)C(CC2C(=O)CC(C)(C)C(C(=O)C(=O)Nc3c(C)cccc3C)C2=O)c2ccc(OC)cc2)cc1` (configuration not stated), the TGI in experiment [1], in experiment [2], in experiment [3] and in experiment [4] was more than 100 µM in each case.
Take `CCOC(=O)NC(C(C(=O)OCC)C(=O)OCC)(C(F)(F)F)C(F)(F)F`: the TGI in experiment [1], in experiment [3], in experiment [4] and in experiment [5] was more than 100 µM throughout.
With `C[N+]1(CCCC[N+]2(C)CCCCCCC2)CCCCCCC1`, the TGI in experiment [1], in experiment [3], in experiment [4] and in experiment [5] was more than 100 µM each time.
With `CC(C)N(C(=O)c1ccc(NCc2cc(O)ccc2O)cc1)C(C)C`, the TGI in experiment [1] came out at 30 µM; in experiment [3], 35.7 µM; in experiment [5], 40.7 µM.
For the molecule `CN(C)C(=O)C(F)(F)C(c1ccc(C(F)(F)F)cc1)C1C(=O)N(C)C(=O)N(C)C1=O` (configuration not stated), the TGI in experiment [1], in experiment [2], in experiment [3] and in experiment [5] was more than 100 µM throughout.
`CCN(CC)CCOCC1CCCN2CCCCC12` (configuration not stated): the TGI in experiment [1], in experiment [2], in experiment [3] and in experiment [5] was more than 100 µM in each case.
As to `N#Cc1nc(C2SCCCS2)oc1N`, the TGI in experiment [1] and in experiment [3] was more than 100 µM throughout.
As for `Cc1nc2ccc(S(=O)(=O)Nc3ccccc3Cl)cc2c(=O)n1NC(=O)CNc1ccccc1Cl`, the TGI in experiment [1], in experiment [2], in experiment [3] and in experiment [4] was more than 100 µM in each case.
Consider `Nc1ccc(-c2nc3ccccc3s2)cc1F`, for which the TGI in experiment [1], in experiment [3] and in experiment [4] was more than 100 µM throughout.
Take `COC(=O)C(CCSc1ccccc1)C(=O)OC`: the TGI in experiment [2], in experiment [3], in experiment [4] and in experiment [5] was more than 100 µM each time.

The values are drawn from PubChem BioAssay (NCI).
